Assay results from the supplement of paper PMC10307832.

Columns and labels:
Assay in all cases: relative viability (nuclei count vs DMSO), 5 days (fraction); higher = more cells survive
Elesclomol + Palbociclib = compound: CN(NC(=O)CC(=O)NN(C)C(=S)c1ccccc1)C(=S)c1ccccc1 [Elesclomol] + CC(=O)c1c(C)c2cnc(Nc3ccc(N4CCNCC4)cn3)nc2n(C2CCCC2)c1=O [Palbociclib] (partner 0.5 µM)
In short: (§1)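 Relative viability equals treated-well nuclei counts divided by vehicle-well nuclei counts. Counts came from 4× images of lung cancer cell lines grown in 1536-well plates for 5 days after pin-tool dosing on the day after seeding. Dosing used one drug alone or a fixed anchor-drug dose plus five library-drug doses (not always all listed) in √10 steps, and values are medians of duplicate plates.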

Elesclomol + Bortezomib = compound: CN(NC(=O)CC(=O)NN(C)C(=S)c1ccccc1)C(=S)c1ccccc1 [Elesclomol] + CC(C)C[C@H](NC(=O)[C@H](Cc1ccccc1)NC(=O)c1cnccn1)B(O)O [Bortezomib] (partner 0.002 µM)
In short: as §1

Elesclomol + Foretinib = compound: CN(NC(=O)CC(=O)NN(C)C(=S)c1ccccc1)C(=S)c1ccccc1 [Elesclomol] + COc1cc2c(Oc3ccc(NC(=O)C4(C(=O)Nc5ccc(F)cc5)CC4)cc3F)ccnc2cc1OCCCN1CCOCC1 [Foretinib] (partner 0.25 µM)
In short: as §1

Elesclomol + Pemetrexed = compound: CN(NC(=O)CC(=O)NN(C)C(=S)c1ccccc1)C(=S)c1ccccc1 [Elesclomol] + Nc1nc2[nH]cc(CCc3ccc(C(=O)N[C@@H](CCC(=O)O)C(=O)O)cc3)c2c(=O)[nH]1 [Pemetrexed] (partner 0.2 µM)
In short: as §1

Elesclomol + Decitabine = compound: CN(NC(=O)CC(=O)NN(C)C(=S)c1ccccc1)C(=S)c1ccccc1 [Elesclomol] + Nc1ncn([C@H]2C[C@H](O)[C@@H](CO)O2)c(=O)n1 [Decitabine] (partner 2 µM)
In short: as §1

Cell Line	relative viability (Elesclomol + Palbociclib; first compound 0.003162 µM)	relative viability (Elesclomol + Palbociclib; first compound 0.01 µM)	relative viability (Elesclomol + Palbociclib; first compound 0.03162 µM)	relative viability (Elesclomol + Palbociclib; first compound 0.1 µM)	relative viability (Elesclomol + Bortezomib; first compound 0.003162 µM)	relative viability (Elesclomol + Bortezomib; first compound 0.01 µM)	relative viability (Elesclomol + Bortezomib; first compound 0.03162 µM)	relative viability (Elesclomol + Bortezomib; first compound 0.1 µM)	relative viability (Elesclomol + Foretinib; first compound 0.003162 µM)	relative viability (Elesclomol + Foretinib; first compound 0.01 µM)	relative viability (Elesclomol + Foretinib; first compound 0.03162 µM)	relative viability (Elesclomol + Foretinib; first compound 0.1 µM)	relative viability (Elesclomol + Pemetrexed; first compound 0.003162 µM)	relative viability (Elesclomol + Pemetrexed; first compound 0.01 µM)	relative viability (Elesclomol + Pemetrexed; first compound 0.03162 µM)	relative viability (Elesclomol + Pemetrexed; first compound 0.1 µM)	relative viability (Elesclomol + Decitabine; first compound 0.003162 µM)	relative viability (Elesclomol + Decitabine; first compound 0.01 µM)	relative viability (Elesclomol + Decitabine; first compound 0.03162 µM)	relative viability (Elesclomol + Decitabine; first compound 0.1 µM)
EKVX	0.334	0.155	0.143	0.105	0.997	0.633	0.312	0.208	0.779	0.736	0.398	0.189	0.366	0.33	0.151	0.131	0.395	0.222	0.148	0.132
EMC-BAC-2	0.514	0.369	0.455	0.352	1.08	0.948	0.866	0.637	1.1	0.877	0.784	0.392	0.486	0.399	0.525	0.426	0.933	0.804	–	0.408
EPLC-272H	0.352	0.117	0.118	0.112	0.918	–	1.03	0.481	0.67	–	0.672	0.0988	0.285	0.118	0.154	0.196	0.35	0.134	0.0913	0.103
H3255	0.331	0.309	0.285	0.254	0.792	0.465	0.418	0.289	0.765	0.884	0.57	0.398	0.627	0.531	0.489	0.474	0.617	0.486	0.296	0.243
HARA	0.239	0.278	0.284	0.233	1.1	1.1	1.01	0.332	0.875	0.878	0.691	0.238	0.211	0.293	0.183	0.141	0.562	0.584	0.271	0.158
HCC-15	0.714	0.629	0.518	0.12	0.998	0.905	0.662	0.42	0.946	0.857	0.355	0.171	0.237	0.23	0.24	0.187	0.623	0.478	0.343	0.206
HCC-44	0.975	0.895	0.939	0.952	0.906	0.794	0.876	0.628	–	–	–	–	0.603	0.607	0.685	0.639	0.913	0.941	0.952	0.94
HCC-78	0.493	0.377	0.489	0.466	0.487	0.419	0.447	0.494	0.516	0.574	0.548	0.583	0.901	0.856	0.911	0.956	0.727	0.674	0.701	0.564
